Here are results for nine compounds from ChEMBL document CHEMBL1123450, “A theoretical study of the binding of polychlorinated biphenyls (PCBs), dibenzodioxins, and dibenzofuran to human plasma prealbumin” (J Med Chem, 1986).

A short description of the assay: KPCB/ K352 ratio of the compound.

Turning to `Oc1c(Cl)cc(-c2ccccc2)cc1Cl`, the Ratio came to 45.

Turning to `Oc1c(Cl)cc(-c2ccc(Cl)cc2)cc1Cl`, the Ratio worked out at 27.5. For the compound `Oc1c(Cl)cc(Cl)cc1-c1ccccc1`, the Ratio worked out at 1. For `Oc1c(I)cc(I)cc1I`, the Ratio is 33.8. `Oc1ccc(-c2c(Cl)cc(Cl)cc2Cl)cc1`: the Ratio was 2.91. As for `Clc1cc(-c2cc(Cl)c(Cl)c(Cl)c2)cc(Cl)c1Cl`, the Ratio was 27.7. The same measure for `O=C1C(Cl)=CC(=C2C=C(Cl)C(=O)C(Cl)=C2)C=C1Cl`: 2.92; for `Oc1c(Cl)cc(-c2cc(Cl)c(O)c(Cl)c2)cc1Cl`: 45.5. With `Oc1ccc(-c2cc(Cl)c(Cl)c(Cl)c2Cl)cc1`, the Ratio is 24.3.
